Data taken from ChEMBL document CHEMBL1201862, “PubChem BioAssay data set” (2004).
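Following 48 hours of exposure in 96-well plates, responses at five concentrations were used to interpolate endpoints linearly. Abbreviation: GI50, concentration required for 50% inhibition of growth.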 Active and inactive are the calls of the source. No stated cut-off is given here; in the data, active = GI50 up to about 1.1 µM and inactive = higher.

Experiments:
Experiment in all cases: NCI anticancer screen, dose series, 48 h
[1] = test system: DMS-114
[2] = test system: OVCAR-5
[3] = test system: NCI-H23
[4] = test system: SF-268
[5] = test system: NCI-H226
[6] = test system: SK-MEL-2
[7] = test system: A498
[8] = test system: UACC-257
[9] = test system: U-251
[10] = test system: SN12C
[11] = test system: SF-539
[12] = test system: HCC 2998
[13] = test system: NCI/ADR-RES
[14] = test system: SNB-75
[15] = test system: CAKI-1
[16] = test system: 786-0
[17] = test system: TK-10
[18] = test system: M14

COC1=C(C)C(=O)C2=C(C1=O)[C@@H]1[C@@H]3Cc4c(OC(=O)CO)c(C)c(OC)c(O)c4[C@H](CNC(=O)C(C)=O)N3[C@@H](C#N)[C@H](C2)N1C
GI50 [1]: < 0.01 µM (active) | GI50 [2]: 0.098 µM (active) | GI50 [3]: < 0.011 µM (active) | GI50 [4]: 0.0552 µM (active) | GI50 [5]: 0.0871 µM (active) | GI50 [6]: < 0.0189 µM (active) | GI50 [7]: 0.0959 µM (active) | GI50 [8]: < 0.0152 µM (active) | GI50 [9]: 0.029 µM (active) | GI50 [10]: 0.013 µM (active) | GI50 [11]: 0.0528 µM (active) | GI50 [12]: 0.0472 µM (active) | GI50 [13]: 1.08 µM (active) | GI50 [14]: < 0.0353 µM (active) | GI50 [15]: < 0.01 µM (active)

CC1[C@@]2(O[C@@H]3C=C4C5CCC6Cc7nc8c(nc7C[C@@]6(C)C5C[C@H](O)[C@@]4(C)[C@]13O)CC1CCc3c(cc4c5c3C(O)C[C@H]5[C@@H](C)C3(O4)OC(C)(C)CC3O)[C@]1(C)C8)O[C@@](C)(CO)C[C@@H]2O (stereo not given in full)
GI50 [1]: 0.119 µM (active) | GI50 [2]: 0.618 µM (active) | GI50 [4]: 0.191 µM (active) | GI50 [5]: 0.185 µM (active) | GI50 [6]: 0.436 µM (active) | GI50 [7]: 0.129 µM (active) | GI50 [8]: 1.3 µM (inactive) | GI50 [9]: 0.0759 µM (active) | GI50 [10]: 2.3 µM (inactive) | GI50 [11]: 0.173 µM (active) | GI50 [12]: 1.91 µM (inactive) | GI50 [14]: 0.0182 µM (active) | GI50 [15]: 0.659 µM (active)

C#CCNC(=O)CCC(N)C(=O)O (stereo not given)
GI50 [1]: > 100 µM (inactive) | GI50 [2]: > 100 µM (inactive) | GI50 [3]: > 100 µM (inactive) | GI50 [4]: > 100 µM (inactive) | GI50 [5]: > 100 µM (inactive) | GI50 [6]: > 100 µM (inactive) | GI50 [7]: > 100 µM (inactive) | GI50 [8]: > 100 µM (inactive) | GI50 [9]: > 100 µM (inactive) | GI50 [10]: > 100 µM (inactive) | GI50 [11]: > 100 µM (inactive) | GI50 [12]: > 100 µM (inactive) | GI50 [13]: > 100 µM (inactive) | GI50 [14]: > 100 µM (inactive) | GI50 [15]: > 100 µM (inactive)

C[C@H](N)C(=O)N[C@@H]1[C@H]2C(=C(O)C[C@@H](O)[C@@H]2O)C(=O)O[C@@H]1C
GI50 [1]: > 100 µM (inactive) | GI50 [2]: > 100 µM (inactive) | GI50 [3]: > 100 µM (inactive) | GI50 [4]: > 100 µM (inactive) | GI50 [5]: > 100 µM (inactive) | GI50 [6]: > 100 µM (inactive) | GI50 [7]: > 100 µM (inactive) | GI50 [8]: > 100 µM (inactive) | GI50 [9]: > 100 µM (inactive) | GI50 [10]: > 100 µM (inactive) | GI50 [11]: > 100 µM (inactive) | GI50 [12]: > 100 µM (inactive) | GI50 [13]: > 100 µM (inactive) | GI50 [14]: > 100 µM (inactive) | GI50 [15]: > 100 µM (inactive)

BrC(/C=N/Nc1nnc(-c2ccccc2)c(-c2ccccc2)n1)C(Br)c1ccccc1 (stereo not given)
GI50 [1]: 23.7 µM (inactive) | GI50 [2]: 51.5 µM (inactive) | GI50 [3]: 22.2 µM (inactive) | GI50 [4]: 29.2 µM (inactive) | GI50 [5]: 20.4 µM (inactive) | GI50 [6]: 19.9 µM (inactive) | GI50 [16]: 32 µM (inactive) | GI50 [7]: 40.2 µM (inactive) | GI50 [8]: 14.1 µM (inactive) | GI50 [9]: 28.2 µM (inactive) | GI50 [10]: 48.8 µM (inactive) | GI50 [17]: 35.8 µM (inactive) | GI50 [11]: 28.4 µM (inactive) | GI50 [12]: 30.3 µM (inactive) | GI50 [14]: 22.2 µM (inactive) | GI50 [18]: 21.6 µM (inactive) | GI50 [15]: 30.7 µM (inactive)
